Source: patent US6518278B1, “Carcinostatic substance for compatible administration, process of administrating same and process of rapidly inspecting same” (Debio Pharm S.A., priority 1994, dated 2003)
Entries after “also recorded” stand apart in the source; their conditions may differ.

System: human leutecyte strain cell (RPMI-8402)
Assay: Extinction effect of compatible administration of l-OHP and a compatible agent on tumor cells (compatible efficiency OE)
Type: cell-based
Settings: for Compatible Effects of l-OHP and Compatible Agent, Simultaneous Administration: both added day 1
Procedure: In the evaluation of the extinction effect of the tumor cells of the respective combinations, a pure extinction effect produced by the compatible administration of the compatible agent and the l-OHP is calculated by subtracting an extinction effect of a control (no carcinostatic substance is employed).
The compatibly administration effect is calculated by employing an Equation (1) described later. When the value (%) calculated by this Equation is between 85 and 115%, the compatible administration effect is evaluated to be an additive effect. When the value is below 85%, it is evaluated to be below the additive effect. When the value is over 115%, it is evaluated to be a synergistic effect, ±15% is a reliability limit or a measurement error.
A target tumor cell was a human leutecyte strain cell (RPMI-8402 of Gibuko K.K.). To these cells was added blood serum of a cow embryo (15%, Gibuko K.K.) to prepare a cell floating liquid of which the number of the cells was 10^6/ml in a cultivation bottle (tradename; Sumiron of Sumitomo Bakelite o., Ltd.) having a volume of 6 ml. A plenty of the cultivation bottles having the cell floating liquid therein were prepared, and the following experiments were conducted while selecting one kind of a compatible agent among cisplatin, 5-FU, irinotecane, adriamycin, etoposide, mitomycin, mitoxantrone, bleomycin, vincristin and vindecin. The time schedules of the controls (no addition of medicines, addition of only the l-OHP and addition of only a compatible agent, and specified in the below items (1) to (4)) and of the compatible administration of the compatible agent and the l-OHP are shown in FIG. 10.
(1) No medicine was added (control).
(2) Only the l-OHP was added at a second day.
(3) A large amount of compatible agents were added at a first day ([…] of the cisplatin, 10 μg/ml of the 5-FU, 0.05 μg/ml of the adriamycin and 1 μg/ml of the etoposide, and for the comparison purpose, 0.05 μg/ml of the vincristin and 0.06 μg/ml of the vindecin). The adding amount of the irinotecano was fixed to 10 μg/ml, and the addition amount of the l-OHP was 5 μg/ml.
(4) A small amount of compatible agents were added at a first day (0.5 μg/ml of the cisplatin, 5 μg/ml of the 5-FU, 0.01 μg/ml of the adriamycin and 0.5 μg/ml of the etoposide, and for the comparison purpose, 0.01 μg/ml of the vincristin and 0.01 μg/ml of the vindecin). The adding amount of the irinotecane was fixed to 10 μg/ml, and the addition amount of the l-OHP was 1 μg/ml.
(5) The l-OHP and a large amount (the same as that of the above item (3) and so forth in the following items) of the compatible agents were simultaneously added at a first day.
(6) The l-OHP and a small amount (the same as that of the above item (4) and so forth in the following items) of the compatible agents were simultaneously added at a first day.
(7) The l-OHP was added at a first day and a large amount of the compatible agents were added at a second day.
(8) The l-OHP was added at a first day and a small amount of the compatible agents were added at a second day.
(9) The l-OHP was added at a first day and a large amount of the compatible agents were added at a third day.
(10) The l-OHP was added at a first day and a small amount of the compatible agents were added at a third day.
(11) The l-OHP was added at a first day and a large amount of the compatible agents were added at a fourth day.
(12) The l-OHP was added at a first day and a small amount of the compatible agents were added at a fourth day.
(13) A large amount of the compatible agents were added at a first day and the l-OHP was added at a second day.
(14) A small amount of the compatible agents were added at a first day and the l-OHP was added at a second day.
(15) A large amount of the compatible agents were added at a first day and the l-OHP was added at a third day.
(16) A small amount of the compatible agents were added at a first day and the l-OHP was added at a third day.

[1] = larger dosage of compatible agent (μg/ml: cisplatin 1, 5-FU 10, irinotecane 10, adriamycin 0.05, vincristin 0.05, vindecin 0.05, etoposide 1, bleomycin 10, mitoxantrone 0.1, mitomycine 1), l-OHP 1 μg/ml (5 μg/ml with irinotecane) added day 1
[2] = larger dosage of compatible agent (μg/ml: cisplatin 1, 5-FU 10, irinotecane 10, adriamycin 0.05, vincristin 0.05, vindecin 0.05, etoposide 1, bleomycin 10, mitoxantrone 0.1, mitomycine 1), l-OHP 1 μg/ml (5 μg/ml with irinotecane)
[3] = larger dosage of compatible agent added day 1 (μg/ml: cisplatin 1, 5-FU 10, irinotecane 10, adriamycin 0.05, vincristin 0.05, vindecin 0.05, etoposide 1, bleomycin 10, mitoxantrone 0.1, mitomycine 1), l-OHP 1 μg/ml (5 μg/ml with irinotecane)
[4] = smaller dosage of compatible agent (μg/ml: cisplatin 0.5, 5-FU 5, irinotecane 10, adriamycin 0.01, vincristin 0.01, vindecin 0.01, etoposide 0.5, bleomycin 1, mitoxantrone 0.05, mitomycine 0.5), l-OHP 1 μg/ml added day 1
[5] = smaller dosage of compatible agent (μg/ml: cisplatin 0.5, 5-FU 5, irinotecane 10, adriamycin 0.01, vincristin 0.01, vindecin 0.01, etoposide 0.5, bleomycin 1, mitoxantrone 0.05, mitomycine 0.5), l-OHP 1 μg/ml
[6] = smaller dosage of compatible agent added day 1 (μg/ml: cisplatin 0.5, 5-FU 5, irinotecane 10, adriamycin 0.01, vincristin 0.01, vindecin 0.01, etoposide 0.5, bleomycin 1, mitoxantrone 0.05, mitomycine 0.5), l-OHP 1 μg/ml

| Structure (SMILES) | compatible administration effect with l-OHP, summary in words | Compatible Effects of l-OHP and Compatible Agent, Time Lag Administration, Addition Administration of Compatible Agent day 2 [1] | Compatible Effects of l-OHP and Compatible Agent, Time Lag Administration, Addition Administration of Compatible Agent day 3 [1] | Compatible Effects of l-OHP and Compatible Agent, Time Lag Administration, Addition Administration of Compatible Agent day 4 [1] | Compatible Effects of l-OHP and Compatible Agent, Simultaneous Administration [2] | Compatible Effects of l-OHP and Compatible Agent, Time Lag Administration, Addition Administration of l-OHP day 2 [3] | Compatible Effects of l-OHP and Compatible Agent, Time Lag Administration, Addition Administration of l-OHP day 3 [3] | Compatible Effects of l-OHP and Compatible Agent, Time Lag Administration, Addition Administration of l-OHP day 4 [3] | Compatible Effects of l-OHP and Compatible Agent, Time Lag Administration, Addition Administration of Compatible Agent day 2 [4] | Compatible Effects of l-OHP and Compatible Agent, Time Lag Administration, Addition Administration of Compatible Agent day 3 [4] | Compatible Effects of l-OHP and Compatible Agent, Time Lag Administration, Addition Administration of Compatible Agent day 4 [4] | Compatible Effects of l-OHP and Compatible Agent, Simultaneous Administration [5] | Compatible Effects of l-OHP and Compatible Agent, Time Lag Administration, Addition Administration of l-OHP day 2 [6] | Compatible Effects of l-OHP and Compatible Agent, Time Lag Administration, Addition Administration of l-OHP day 3 [6] | Compatible Effects of l-OHP and Compatible Agent, Time Lag Administration, Addition Administration of l-OHP day 4 [6] |
| --- | --- | --- | --- | --- | --- | --- | --- | --- | --- | --- | --- | --- | --- | --- | --- |
| COc1cc([C@@H]2c3cc4c(cc3[C@@H](O[C@@H]3O[C@@H]5CO[C@@H](C)O[C@H]5[C@H](O)[C@H]3O)[C@H]3COC(=O)[C@H]23)OCO4)cc(OC)c1O [etoposide] | the additive effect or the synergistic effect regardless of the administration method and the dosage in almost all the cases; also recorded: synergistic effects can be obtained in almost all the combinations when the l-OHP is added later | ◯ (◯: Additive Effect) | ◯ (◯: Additive Effect) | Δ (Δ: Below Additive Effect) | ◯ (◯: Additive Effect) | • (•: Synergistic Effect) | • (•: Synergistic Effect) | • (•: Synergistic Effect) | ◯ (◯: Additive Effect) | • (•: Synergistic Effect) | ◯ (◯: Additive Effect) | ◯ (◯: Additive Effect) | • (•: Synergistic Effect) | • (•: Synergistic Effect) | • (•: Synergistic Effect) |
| CCc1c2c(nc3ccc(OC(=O)N4CCC(N5CCCCC5)CC4)cc13)-c1cc3c(c(=O)n1C2)COC(=O)[C@]3(O)CC [irinotecane] | the additive effect or the synergistic effect regardless of the administration method and the dosage in almost all the cases; also recorded: synergistic effects can be obtained in all the combinations when the l-OHP is added later | ◯ (◯: Additive Effect) | ◯ (◯: Additive Effect) | Δ (Δ: Below Additive Effect) | ◯ (◯: Additive Effect) | ◯ (◯: Additive Effect) | • (•: Synergistic Effect) | • (•: Synergistic Effect) | ◯ (◯: Additive Effect) | ◯ (◯: Additive Effect) | ◯ (◯: Additive Effect) | ◯ (◯: Additive Effect) | • (•: Synergistic Effect) | • (•: Synergistic Effect) | • (•: Synergistic Effect) |
| CO[C@@]12[C@H](COC(N)=O)C3=C(C(=O)C(C)=C(N)C3=O)N1C[C@@H]1N[C@@H]12 [mitomycine, mitomycin] | the additive effect or the synergistic effect regardless of the administration method and the dosage in almost all the cases; also recorded: synergistic effects can be obtained in most combinations when the l-OHP is administrated before to the mitomycin | ◯ (◯: Additive Effect) | • (•: Synergistic Effect) | • (•: Synergistic Effect) | ◯ (◯: Additive Effect) | ◯ (◯: Additive Effect) | Δ (Δ: Below Additive Effect) | Δ (Δ: Below Additive Effect) | ◯ (◯: Additive Effect) | • (•: Synergistic Effect) | • (•: Synergistic Effect) | ◯ (◯: Additive Effect) | ◯ (◯: Additive Effect) | Δ (Δ: Below Additive Effect) | ◯ (◯: Additive Effect) |
